In US20230416228A1 (Forkhead Biotherapeutics, Inc., priority 2020, published 2023):

Target: T1, human FOXO1 (constitutively active form Thr24Ala, Ser256Ala, Ser319Ala) (Homo sapiens, UniProt Q12778, S256A/S319A/T24A)
T1 construct: expressed in transfected cells; host or cells: HEK293 cells transfected with pcDNA3.1 plasmid
Assay: FOXO1 inhibitor activity assay: cell-based transcriptional (luciferase) reporter assay in HEK293 cells
Conditions: HEK293 cells transfected with insulin response element firefly luciferase reporter, FOXO1 and Renilla luciferase; 10-point dose response 50 μM to 2.5 nM; 24 hours
Method: The inhibitory activities of compounds on FOXO1 were determined by a cell-based transcriptional reporter assay. HEK293 cells were plated onto either 384-well poly-D-lysine coated plates (at 7500 cells per well) or 96-well plates (at 20000 cells per well) in low glucose Eagle's Minimum Essential Medium (EMEM) containing 1% fetal bovine serum, and incubated overnight at 37° C. and 5% CO2. […] Duplicate wells were included for each treatment condition. Cells were incubated for 24 hours at 37° C. and 5% CO2. Luciferase activities in each well were measured using Dual-Glog Luciferase Assay System (Promega) according to manufacturer's protocol and an Envision plate reader suitable for luminescence detection. Firefly luciferase activity was divided by Renilla luciferase activity to calculate a ratio for each well. The ratio in wells containing cells transfected with all 3 plasmids listed above and receiving only DMSO without compound addition was set to 100%. The ratio in wells containing cells transfected with plasmid (1), plasmid (3), and pcDNA3.1 containing the open reading frame of red fluorescent protein (instead of human FOXO1) and treated with DMSO was set to 0%. The ratio in each well receiving compound treatment was normalized and expressed as a percentage. Data were fit by 4-parameter logistic regression to determine IC50 and maximal inhibition values. Each compound was tested in a minimum of 2 independent experiments.

T1 sequence (Q12778 whole entry T24A/S256A/S319A): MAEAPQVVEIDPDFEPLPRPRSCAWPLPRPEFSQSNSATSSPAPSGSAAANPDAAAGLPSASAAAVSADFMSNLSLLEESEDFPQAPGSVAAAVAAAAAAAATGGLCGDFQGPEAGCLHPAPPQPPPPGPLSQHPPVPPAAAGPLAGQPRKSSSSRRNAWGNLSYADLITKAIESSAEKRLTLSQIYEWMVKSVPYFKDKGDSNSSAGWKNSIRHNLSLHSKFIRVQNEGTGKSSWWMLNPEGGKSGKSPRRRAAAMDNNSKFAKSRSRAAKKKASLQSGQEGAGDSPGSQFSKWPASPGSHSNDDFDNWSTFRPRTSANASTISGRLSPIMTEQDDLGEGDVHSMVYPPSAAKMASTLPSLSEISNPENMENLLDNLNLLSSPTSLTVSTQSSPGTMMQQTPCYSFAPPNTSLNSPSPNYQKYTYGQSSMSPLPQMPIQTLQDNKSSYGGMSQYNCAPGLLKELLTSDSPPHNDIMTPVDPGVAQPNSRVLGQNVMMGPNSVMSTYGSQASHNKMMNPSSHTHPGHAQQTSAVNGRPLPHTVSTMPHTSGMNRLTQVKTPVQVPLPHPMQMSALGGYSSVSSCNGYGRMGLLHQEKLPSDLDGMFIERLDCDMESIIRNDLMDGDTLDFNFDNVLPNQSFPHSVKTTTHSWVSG

Row | Structure (SMILES) | IC50
1 | COc1ccc(Nc2nccc(-c3nc4ccccc4[nH]3)n2)cc1Cl [Compound A-92, 4-(1H-benzimidazol-2-yl)-N-(3-chloro-4-methoxy-phenyl)pyrimidin-2-amine] | > 1000 nM
2 | COCCSc1ccc(C(=O)Nc2cc(-c3nc4ccccc4[nH]3)[nH]n2)cc1Cl [Compound A-93, N-[5-(1H-benzimidazol-2-yl)-1H-pyrazol-3-yl]-3-chloro-4-(2-methoxyethylsulfanyl)benzamide] | < 100 nM
3 | COCCOc1ccc(C(=O)Nc2cc(-c3nc4ccccc4[nH]3)[nH]n2)cc1C [Compound A-94, N-[5-(1H-benzimidazol-2-yl)-1H-pyrazol-3-yl]-4-(2-methoxyethoxy)-3-methyl-benzamide] | < 100 nM
4 | Cn1nc(NC(=O)c2ccc(N3CCOCC3)cc2)cc1-c1nc2ccccc2[nH]1 [Compound A-95, N-[5-(1H-benzimidazol-2-yl)-1-methyl-pyrazol-3-yl]-4-morpholino-benzamide] | 100 to 300 nM
5 | Cn1nc(NC(=O)c2ccc(N3CCC(CO)CC3)nc2)cc1-c1nc2ccccc2[nH]1 [Compound A-96, N-[5-(1H-benzimidazol-2-yl)-1-methyl-pyrazol-3-yl]-6-[4-(hydroxy-methyl)-1-piperidyl]pyridine-3-carboxamide] | < 100 nM
6 | COC1CN(c2ccc(C(=O)Nc3cc(-c4nc5ccccc5[nH]4)n(C)n3)cn2)C1 [Compound A-97, N-[5-(1H-benzimidazol-2-yl)-1-methyl-pyrazol-3-yl]-6-(3-methoxyazetidin-1-yl)pyridine-3-carboxamide] | 100 to 300 nM
7 | Cc1ccc2[nH]c(-c3cc(NC(=O)c4ccc(N5CCC(CO)CC5)nc4)n[nH]3)nc2c1 [Compound A-98, 6-[4-(hydroxymethyl)-1-piperidyl]-N-[5-(5-methyl-1H-benzimidazol-2-yl)-1H-pyrazol-3-yl]pyridine-3-carboxamide] | < 100 nM
8 | Cc1ccc2[nH]c(-c3cc(NC(=O)c4ccc(N5CCC(O)CC5)nc4)n[nH]3)nc2c1 [Compound A-99, 6-(4-hydroxy-1-piperidyl)-N-[5-(5-methyl-1H-benzimidazol-2-yl)-1H-pyrazol-3-yl]pyridine-3-carboxamide] | 100 to 300 nM
9 | Cc1ccc2[nH]c(-c3cc(NC(=O)c4ccc(N5CCOCC5)nc4)n[nH]3)nc2c1 [Compound A-100, N-[5-(5-methyl-1H-benzimidazol-2-yl)-1H-pyrazol-3-yl]-6-morpholino-pyridine-3-carboxamide] | 100 to 300 nM
10 | O=C(Nc1cc(-c2nc3cc(C(F)(F)F)ccc3[nH]2)[nH]n1)c1ccc(N2CCC(CO)CC2)nc1 [Compound A-101, 6-[4-(hydroxymethyl)-1-piperidyl]-N-[5-[5-(trifluoromethyl)-1H-benzimidazol-2-yl]-1H-pyrazol-3-yl]pyridine-3-carboxamide] | > 1000 nM
11 | O=C(Nc1cc(-c2nc3cc(C(F)(F)F)ccc3[nH]2)[nH]n1)c1ccc(N2CCOCC2)nc1 [Compound A-102, 6-morpholino-N-[5-[5-(trifluoromethyl)-1H-benzimidazol-2-yl]-1H-pyrazol-3-yl]pyridine-3-carboxamide] | > 1000 nM
12 | COCCOc1ccc(C(=O)Nc2cc(-c3nc4ccccc4[nH]3)[nH]n2)cc1F [Compound A-103, N-[5-(1H-benzimidazol-2-yl)-1H-pyrazol-3-yl]-3-fluoro-4-(2-methoxy-ethoxy)benzamide] | < 100 nM
13 | COCCOc1ccc(C(=O)Nc2cc(-c3nc4ccccc4[nH]3)[nH]n2)cc1C(F)(F)F [Compound A-104, N-[5-(1H-benzimidazol-2-yl)-1H-pyrazol-3-yl]-4-(2-methoxyethoxy)-3-(trifluoromethyl)benzamide] | < 100 nM
14 | O=C(Nc1cc(-c2nc3cc(C(F)(F)F)ccc3[nH]2)[nH]n1)c1ccc(N2CCC(O)CC2)nc1 [Compound A-105, 6-(4-hydroxy-1-piperidyl)-N-[5-[5-(trifluoromethyl)-1H-benzimidazol-2-yl]-1H-pyrazol-3-yl]pyridine-3-carboxamide] | > 1000 nM
15 | COc1ccc(C(=O)Nc2cc(-c3nc4ccc(OC)c(F)c4[nH]3)[nH]n2)cc1Cl [Compound A-106, 3-chloro-N-[5-(7-fluoro-6-methoxy-1H-benzimidazol-2-yl)-1H-pyrazol-3-yl]-4-methoxy-benzamide] | 100 to 300 nM
16 | O=C(Nc1cc(-c2nc3cc(OC(F)(F)F)ccc3[nH]2)[nH]n1)c1ccc(N2CCOCC2)nc1 [Compound A-107, 6-morpholino-N-[5-[5-(trifluoromethoxy)-1H-benzimidazol-2-yl]-1H-pyrazol-3-yl]pyridine-3-carboxamide] | > 1000 nM

Row | Structure (SMILES) | IC50
17 | O=C(Nc1cc(-c2nc3cc(OC(F)(F)F)ccc3[nH]2)[nH]n1)c1ccc(N2CCC(O)CC2)nc1 [Compound A-108, 6-(4-hydroxy-1-piperidyl)-N-[5-[5-(trifluoromethoxy)-1H-benzimidazol-2-yl]-1H-pyrazol-3-yl]pyridine-3-carboxamide] | > 1000 nM
18 | COc1ccc2[nH]c(-c3cc(NC(=O)c4ccc(N5CCC(CO)CC5)nc4)n[nH]3)nc2c1 [Compound A-109, 6-[4-(hydroxymethyl)-1-piperidyl]-N-[5-(5-methoxy-1H-benzimidazol-2-yl)-1H-pyrazol-3-yl]pyridine-3-carboxamide] | < 100 nM
19 | COc1ccc2[nH]c(-c3cc(NC(=O)c4ccc(N5CCOCC5)nc4)n[nH]3)nc2c1 [Compound A-111, N-[5-(5-methoxy-1H-benzimidazol-2-yl)-1H-pyrazol-3-yl]-6-morpholino-pyridine-3-carboxamide] | > 1000 nM
20 | COc1ccc(C(=O)Nc2cc(-c3cn4ccccc4n3)[nH]n2)cc1Cl [Compound A-112, 3-chloro-N-(5-imidazo[1,2-a]pyridin-2-yl-1H-pyrazol-3-yl)-4-methoxy-benzamide] | 300 to 1000 nM
21 | Cc1cc(C(=O)Nc2cc(-c3nc4ccccc4[nH]3)[nH]n2)ccc1OCCO [Compound A-113, N-[5-(1H-benzimidazol-2-yl)-1H-pyrazol-3-yl]-4-(2-hydroxyethoxy)-3-methyl-benzamide] | < 100 nM
22 | O=C(Nc1cc(-c2nc3cc(OC(F)(F)F)ccc3[nH]2)[nH]n1)c1ccc(N2CCC(CO)CC2)nc1 [Compound A-114, 6-[4-(hydroxymethyl)-1-piperidyl]-N-[5-[5-(trifluoromethoxy)-1H-benzimidazol-2-yl]-1H-pyrazol-3-yl]pyridine-3-carboxamide] | > 1000 nM
23 | Cc1ccc2[nH]c(-c3cc(NC(=O)c4ccc(OCCO)c(Cl)c4)n[nH]3)nc2c1 [Compound A-115, 3-chloro-4-(2-hydroxyethoxy)-N-[5-(5-methyl-1H-benzimidazol-2-yl)-1H-pyrazol-3-yl]benzamide] | < 100 nM
24 | O=C(Nc1cc(-c2nc3cc(OC(F)(F)F)ccc3[nH]2)[nH]n1)c1ccc(OCCO)c(Cl)c1 [Compound A-116, 3-chloro-4-(2-hydroxyethoxy)-N-[5-[5-(trifluoromethoxy)-1H-benzimidazol-2-yl]-1H-pyrazol-3-yl]benzamide] | 100 to 300 nM
25 | COc1ccc2[nH]c(-c3cc(NC(=O)c4ccc(OCCO)c(Cl)c4)n[nH]3)nc2c1 [Compound A-117, 3-chloro-4-(2-hydroxyethoxy)-N-[5-(5-methoxy-1H-benzimidazol-2-yl)-1H-pyrazol-3-yl]benzamide formic acid] | < 100 nM
26 | O=C(Nc1cc(-c2nc3cc(Br)ccc3[nH]2)[nH]n1)c1ccc(OCCO)c(Cl)c1 [Compound A-118, N-[5-(5-bromo-1H-benzimidazol-2-yl)-1H-pyrazol-3-yl]-3-chloro-4-(2-hydroxyethoxy)benzamide] | 300 to 1000 nM
27 | O=C(Nc1cc(-c2nc3cccc(F)c3[nH]2)[nH]n1)c1ccc(OCCO)c(Cl)c1 [Compound A-119, 3-chloro-N-[5-(7-fluoro-1H-benzimidazol-2-yl)-1H-pyrazol-3-yl]-4-(2-hydroxyethoxy)benzamide] | 100 to 300 nM
28 | COc1cc(C(=O)Nc2cc(-c3nc4ccccc4[nH]3)[nH]n2)ccc1OCCO [Compound A-120, N-[5-(1H-benzimidazol-2-yl)-1H-pyrazol-3-yl]-4-(2-hydroxyethoxy)-3-methoxy-benzamide] | 300 to 1000 nM
29 | O=C(Nc1cc(-c2nc3cc(Cl)ccc3[nH]2)[nH]n1)c1ccc(OCCO)c(Cl)c1 [Compound A-121, 3-chloro-N-[5-(5-chloro-1H-benzimidazol-2-yl)-1H-pyrazol-3-yl]-4-(2-hydroxyethoxy)benzamide] | 100 to 300 nM
30 | O=C(Nc1cc(-c2nc3cc(C(F)(F)F)ccc3[nH]2)[nH]n1)c1ccc(OCCO)c(Cl)c1 [Compound A-123, 3-chloro-4-(2-hydroxyethoxy)-N-[5-[5-(trifluoromethyl)-1H-benzimidazol-2-yl]-1H-pyrazol-3-yl]benzamide formic acid] | < 100 nM
31 | COc1ccc(C(=O)Nc2cc(-c3nc4ccccc4[nH]3)[nH]n2)cc1F [Compound A-124, N-[5-(1H-benzimidazol-2-yl)-1H-pyrazol-3-yl]-3-fluoro-4-methoxy-benzamide] | < 100 nM
32 | COc1ccc(C(=O)Nc2cc(-c3nc4cccc(F)c4[nH]3)n(C)n2)cc1Cl [Compound A-125, 3-chloro-N-[5-(7-fluoro-1H-benzimidazol-2-yl)-1-methyl-pyrazol-3-yl]-4-methoxy-benzamide] | 100 to 300 nM
